For data set [1], the target named is Sodium-dependent noradrenaline transporter (Homo sapiens, UniProt P23975).
Data set [2] relates to Brain. As to the kind of experiment: Drug uptake in cynomolgus monkey brain assessed as radio activity at 1.35 mCi after 24 mins. Type of data set: ADME, tissue-based, Macaca fascicularis. To be noted: in vivo, 0.4 h.
Data set [3] concerns Cynomolgus monkey. As to the kind of experiment: Ratio of drug level in cerebellum to thalamus in cynomolgus monkey at 1.35 mCi after 93 mins. Type of data set: ADME, organism-based, Macaca fascicularis. To be noted: in vivo, 1.55 h.
Data set [4] has as its system Cynomolgus monkey. As to the kind of experiment: Ratio of drug level in cerebellum to occipital cortex in cynomolgus monkey at 1.35 mCi after 93 mins. Type of data set: ADME, organism-based, Macaca fascicularis. To be noted: in vivo, 1.55 h.
In data set [5] the test system is Cynomolgus monkey. Nature of the data set: Ratio of drug level in cerebellum to locus coreuleus in cynomolgus monkey at 1.35 mCi after 93 mins. Type of data set: ADME, organism-based, Macaca fascicularis. As to conditions: in vivo, 1.55 h.
Data set [6] concerns Cynomolgus monkey. As to the kind of experiment: Ratio of drug level in cerebellum to mesencephalon in cynomolgus monkey at 1.35 mCi after 93 mins. Type of data set: ADME, organism-based, Macaca fascicularis. As to conditions: in vivo, 1.55 h.
Data set [7] has as its system Cynomolgus monkey. As to the kind of experiment: Ratio of drug level in cerebellum to striatum in cynomolgus monkey at 1.35 mCi after 93 mins. Type of data set: ADME, organism-based, Macaca fascicularis. To be noted: in vivo, 1.55 h.
Data set [8] has as its system Brain. As to the kind of experiment: Drug uptake in cynomolgus monkey brain assessed as radio activity at 1.35 mCi after 42 mins. Type of data set: ADME, tissue-based, Macaca fascicularis. To be noted: in vivo, 0.7 h.
In data set [9] the test system is Brain. As to the kind of experiment: Drug uptake in cynomolgus monkey brain assessed as radio activity at 1.41 mCi after 80 mins. To be noted: in vivo. Type of data set: ADME, tissue-based, Macaca fascicularis.
The subject of data set [10] is Cynomolgus monkey. Nature of the data set: Ratio of drug level in striatum to occipital cortex in cynomolgus monkey at 1.41 mCi after 93 mins. Type of data set: ADME, organism-based, Macaca fascicularis. As to conditions: in vivo, 1.55 h.
The test system of data set [11] is Cynomolgus monkey. As to the kind of experiment: Ratio of drug level in striatum to thalamus in cynomolgus monkey at 1.41 mCi after 93 mins. Type of data set: ADME, organism-based, Macaca fascicularis. As to conditions: in vivo, 1.55 h.
Data set [12] concerns Cynomolgus monkey. As to the kind of experiment: Ratio of drug level in striatum to lower brainstem in cynomolgus monkey at 1.41 mCi after 93 mins. Type of data set: ADME, organism-based, Macaca fascicularis. As to conditions: in vivo, 1.55 h.
Data set [13] concerns Cynomolgus monkey. Nature of the data set: Ratio of drug level in striatum to mesencephalon in cynomolgus monkey at 1.41 mCi after 93 mins. Type of data set: ADME, organism-based, Macaca fascicularis. To be noted: in vivo, 1.55 h.
Data set [14] concerns Cynomolgus monkey. As to the kind of experiment: Ratio of drug level in striatum to cerebellum in cynomolgus monkey at 1.41 mCi after 93 mins. Type of data set: ADME, organism-based, Macaca fascicularis. As to conditions: in vivo, 1.55 h.
Data set [15] relates to Cynomolgus monkey. Nature of the data set: Ratio of drug level in NET-rich thalamus to NET-poor striatum in cynomolgus monkey. Type of data set: ADME, organism-based, Macaca fascicularis. To be noted: in vivo.
Data set [16] deals with Cynomolgus monkey. As to the kind of experiment: Ratio of drug level in thalamus to striatum in cynomolgus monkey. As to conditions: in vivo. Type of data set: ADME, organism-based, Macaca fascicularis.

Ki, Drug uptake and Ratio data for 6 compounds are collected here from ChEMBL document CHEMBL1145526, “Synthesis of 11C-labelled (R)-OHDMI and CFMME and their evaluation as candidate radioligands for imaging central norepinephrine transporters with PET” (Bioorg Med Chem, 2007).

Sodium-dependent noradrenaline transporter, sequence (P23975 whole entry): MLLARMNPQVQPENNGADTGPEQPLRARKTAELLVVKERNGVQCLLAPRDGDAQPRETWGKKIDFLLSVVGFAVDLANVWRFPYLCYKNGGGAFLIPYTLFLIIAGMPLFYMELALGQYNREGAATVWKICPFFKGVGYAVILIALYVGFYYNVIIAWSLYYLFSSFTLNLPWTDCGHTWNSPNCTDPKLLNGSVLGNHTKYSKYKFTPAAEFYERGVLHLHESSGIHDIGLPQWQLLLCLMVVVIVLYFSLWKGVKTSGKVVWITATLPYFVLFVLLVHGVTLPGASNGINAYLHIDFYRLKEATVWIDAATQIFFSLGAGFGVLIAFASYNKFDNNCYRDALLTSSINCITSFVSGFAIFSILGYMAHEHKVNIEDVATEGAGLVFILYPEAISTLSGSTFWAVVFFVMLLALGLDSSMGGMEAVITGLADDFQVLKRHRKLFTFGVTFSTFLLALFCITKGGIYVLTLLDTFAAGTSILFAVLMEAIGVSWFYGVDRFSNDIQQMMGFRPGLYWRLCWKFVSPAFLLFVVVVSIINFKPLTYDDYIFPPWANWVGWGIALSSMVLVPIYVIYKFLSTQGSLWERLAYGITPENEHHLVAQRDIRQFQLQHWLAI

As usually defined, the Ki is a dissociation constant, usually derived from enzyme kinetics or from competition with a known ligand. Consider `CNC[C@@H](O)CN1c2ccccc2CCc2ccccc21`, for which, in data set [1], the Ki turned out to be 8.29 nM.

`[11CH3]Oc1ccc(F)cc1C[C@](O)(C1CCCC1)[C@@H]1CNCCO1`: the Drug uptake in the data set on Brain [2] amounted to 3.5 %ID. Further, the Ratio is listed as 1.35 in the data set with Cynomolgus monkey [3]; 1.3 in the data set with Cynomolgus monkey [4]; 1.3 in the data set on Cynomolgus monkey [5]; 1.2 in the data set with Cynomolgus monkey [6]; 1.2 in the data set on Cynomolgus monkey [7]; 3.5 %ID in the data set on Brain [8].

`COc1ccccc1O[C@@H](c1ccccc1)[C@@H]1CNCCO1`: the affinity in data set [1], expressed as Ki, was 7.93 nM.

For the compound `[11CH3]NC[C@@H](O)CN1c2ccccc2CCc2ccccc21`, the Drug uptake in the data set with Brain [9] worked out at 1.1 %ID. In addition, the Ratio is on record as 1.35 with Cynomolgus monkey [10]; 1.35 in the data set on Cynomolgus monkey [11]; 1.2 in the data set with Cynomolgus monkey [12]; 1.2 in the data set on Cynomolgus monkey [13]; 1 in the data set with Cynomolgus monkey [14]; 1.35 with Cynomolgus monkey [15].

With `[11CH3]NC[C@@H](O)CC12CCC(c3ccccc31)c1ccccc12`, the Ratio with Cynomolgus monkey [16] is 1.5.

Turning to `COc1ccc(F)cc1C[C@](O)(C1CCCC1)[C@@H]1CNCCO1`, the affinity in data set [1], expressed as Ki, was 10.8 nM.
